The values that follow come from US20110257436A1, “PROCESS FOR THE MANUFACTURE OF EASILY DISPERSIBLE, SOLID N'-HYDROXY-N-CYCLOHEXYL-DIAZENIUM OXIDE SALTS” (BASF SE, priority 2008, published 2011).

A short description of series [1]: particle size distribution analysis (volume distribution) by laser diffraction of aqueous dispersion. In kind it is physicochemical. From the text:
The D10, D50 and D90 represent the median or the 10th, 50th, and the 90th percentile of the particle size distribution (volume distribution), respectively. That is, the D50 (D10/D90) is a value on the distribution such that 50% (10%/90%) of the particles have a particle size of this value or less. The volume averaged particle size distribution may be measured with an aqueous dispersion of the M^n+(HDO)n by techniques known to the skilled artisan, e.g. by laser diffraction techniques.
Furthermore, a particle size distribution analysis (volume distribution) was performed using a conventional laser diffraction apparatus (Mastersizer® 2000, Fa. Malvern Instruments). For the measurement, 1 g of Cu(HDO)2 was dispersed in 100 ml of water sample and 1 ml of a solution (1% by weight) of a nonionic surfactant (polyethylene glycole p-(1,1,3,3-tetramethylbutyl)-phenyl ether, around 9-10 ethylene oxide groups). […]

For series [2] the following is noted: cited from earlier work.
The mark [3] stands for this setting: dispersion time 1 min, 1 g in 100 ml water with nonionic surfactant.

Take `[Cu+2].[O-]/N=[N+](\[O-])C1CCCCC1.[O-]/N=[N+](\[O-])C1CCCCC1` [Comparative Example, reference compound]: in series [1] (after 10 min dispersion), the D10 value was 2 μm, the D50 came to 15 μm and the D90 was 79 μm. In series [1] (after 30 min dispersion), this compound returned a D10 value of 2 μm, a D50 of 12 μm and a D90 of 53 μm. In addition, in series [1] (setting [3]), the D10 value stood at 3 μm, the D50 was found to be 23 μm and the D90 is on record as 306 μm.

For the compound `O=NN([O-])C1CCCCC1.O=NN([O-])C1CCCCC1.[Cu+2]` [Cu(HDO)2, Cu-salt of N′-hydroxy-N-cyclohexyldiazenium oxide], the results for the D10 value in series [1] (after 10 min dispersion), in series [1] (after 30 min dispersion) and in series [1] (setting [3]) were 14 μm, 12 μm and 16 μm, respectively. The D50 in series [1] (after 10 min dispersion) is on record as 45 μm; in series [1] (after 30 min dispersion) it was 41 μm; in series [1] (setting [3]), 49 μm. The values for the D90 in series [1] (after 10 min dispersion), in series [1] (after 30 min dispersion) and in series [1] (setting [3]) were 108 μm, 93 μm and 140 μm, respectively. In series [2], the solubility in water result is “around 30 ppm”.
